Consider nine molecules from patent US20230312571A1, “RING-MODIFIED PROLINE SHORT PEPTIDE COMPOUND AND USE THEREOF” (priority 2021, published 2023).

The target of one series is SARS-CoV-2 Mpro (Severe acute respiratory syndrome coronavirus 2 (2019-nCoV) (SARS-CoV-2), UniProt P0DTD1). The series can be described thus: In vitro anti-novel coronavirus Mpro protease activity (fluorescent substrate cleavage). The class given is biochemical. Here is the method: The compound was dissolved in DMSO, and diluted in a 3-fold gradient with Echo655 according to the concentration requirements to 10 concentration points, and duplicate tests were set at each concentration, and the diluted solution was added to a 384-well plate. Mpro protein and substrate were diluted with test buffer (100 mM NaCl, 20 mM Tris-HCl, 1 mM EDTA), and Mpro protein was added to the 384-well test plate, incubated with the compound for 30 min at room temperature, and then the substrate was added thereto, and the test concentration of Mpro protein was 25 nM, and the test concentration of substrate was 25 µM. After incubating for 60 minutes in a 30° C. constant temperature incubator, the fluorescence signal value of Ex/Em=340 nm/490 nm was detected by microplate reader. At the same time, the background well containing the substrate and compound but not containing Mpro protein was detected as control.

A further series has as its system Vero cells. Conditions: 24 hours.
Another series has as its system coronavirus HCoV OC43. Kind of series: In vitro anti-coronavirus activity by cytopathic model (CPE, CellTiter Glo). The class given is cell-based. Conditions: HCoV OC43 100 TCID50/well, MRC5 cells, 5 days. As to the method:
MRC5 cells and coronavirus HCoV OC43 were purchased from ATCC.
MRC5 cells were cultured in MEM (Sigma) medium supplemented with 10% fetal bovine serum (Excell), 1% double antibody (Hyclone), 1%L-glutamine (Gibco) and 1% non-essential amino acids (Gibco). MEM (Sigma) medium supplemented with 5% fetal bovine serum (Excell), 1% double antibody (Hyclone), 1% L-glutamine (Gibco) and 1% non-essential amino acid (Gibco) was used as the experimental culture medium.
Cells were inoculated into a 96 microwell plate at a certain density (Table 6) and cultured overnight in an incubator at 5% CO2 and 37° C. On the second day, the compound was added after doubling dilution (8 concentration points, duplicate wells), with 50 µL per well. Then the diluted virus was added to the cells at 100 TCID50 per well, 50 µL per well. Cell control (cell without compound treatment or virus infection), virus control (cell infected with virus without compound treatment) and culture medium control (only culture medium) were set. The final volume of the culture medium in this experiment was 200 µL, and the final concentration of DMSO in the culture medium was 0.5%. Cells were cultured in a 5% CO2, 33° C. incubator for 5 days. Cell viability was detected using the cell viability assay kit CellTiter Glo (Promega). Cytotoxicity experiments were performed under the same conditions as antiviral experiments, but without virus infection.
The antiviral activity and cytotoxicity of the compound were represented by the inhibition rate (%) and cell viability (%) of the compound on the cytopathic effect caused by the virus at different concentrations, respectively. The calculation formula is as follows: […]
GraphPad Prism was used to perform nonlinear fitting analysis on the inhibition rate and cell viability of the compound, and the half effective concentration (EC50) and half cytotoxic concentration (CC50) of the compound were calculated.
Background: Damage to the host cells serves as the signal in cytopathic effect assays.

On the set-up of series [1]: species or system C57BL/6J male mice. The note with it: mouse, in vivo, po, 10 mg/kg. As to the method:
In this study, C57BL/6J male mice were selected as test animals, and the LC/MS/MS method was used to quantitatively measure the plasma concentrations of mice in combination with Ritonavir at different time points, so as to evaluate the pharmacokinetic characteristics of the test drug in mice.
Firstly, 10 mpk of Ritonavir was administered to mice by intragastric administration at -12 h and 0 h, and then the test compound was dissolved in 30% PEG400+70% normal saline solution and administered to mice by intragastric administration (overnight fasting, 6 to 8 weeks old). 25 µL of blood was collected at 0.083, 0.25, 0.5, 1, 2, 4, 8, 12 and 24 hours after administration to animals, placed in a commercial anticoagulant tube pre-added with EDTA-K2, and centrifuged at 4° C., 3200 g for 10 min to obtain plasma. After the plasma samples were treated, the plasma concentration was determined by LC-MS/MS method.

On the set-up of series [2]: species or system C57BL/6J male mice. Conditions: mouse, in vivo. As to the method: In this study, C57BL/6J male mice were selected as test animals, and LC/MS/MS method was used to quantitatively measure the plasma concentration of the test compound 11 at different time points after oral administration and injection in mice, so as to evaluate the pharmacokinetic characteristics of the test drug in mice.
The test compound dissolved in 30% PEG400+70% normal saline was administered to mice (overnight fasting, 6-8 weeks old) by intragastric administration. 25 µL of blood was collected at 0.083, 0.25, 0.5, 1, 2, 4, 8, 12 and 24 hours after administration, respectively, and placed in commercial anticoagulation tubes pre-added with EDTA-K2, centrifuged at 4° C., 3200 g for 10 min to obtain plasma, and after the plasma sample was treated, the plasma concentration was determined by LC-MS/MS method.

The nature of series [3]: Tissue distribution test in rats (plasma and lung, with Ritonavir). The class given is in vivo, SD male rats. The note with it: 30 mpk p.o. with Ritonavir 10 mpk. As to the method: In this study, SD male rats were selected as test animals, and the drug concentrations of test compounds in plasma and lungs of rats at different time points were quantitatively measured by LC/MS/MS method to evaluate the pharmacokinetic characteristics of test drugs in rats.
Firstly, 10 mpk of Ritonavir was administered to rats by intragastric administration at -12 h and 0 h, and 30 mpk of the test compound was dissolved in 10% Solutol + 30% PEG 400 + 2% Tween 80+H2O 58% solution and administered to rats by intragastric administration (overnight fasting). 40 µL of blood was collected from the saphenous vein of rats at 0.25, 1 and 6 hours after administration, placed in an anticoagulant tube added with EDTA-K2, centrifuged at 4° C., 3200 g for 10 min to obtain plasma, and some animals were killed at 0.25, 1 and 6 hours respectively to collect lung tissue. After the plasma samples were treated, the plasma concentration was determined by LC-MS/MS method.

In series [4] the test system is SARS-CoV-2 virus (Novel coronavirus βCoV/KOR/KCDC03/2020 strain). The series can be described thus: Anti-novel coronavirus activity in Vero cells (immunofluorescence, high-content imaging). The class given is cell-based. Conditions: Severe acute respiratory syndrome coronavirus 2, wild-type novel coronavirus, MOI=0.0125, 24 hours.
A further series is described as follows: in vitro. The note with it: African green monkey.
A short description of series [5]: Cytotoxicity in the cytopathic model, without virus infection (CellTiter Glo). Conditions: human.
Setting [6] is: 25 nM Mpro protein, 25 µM substrate, read-out: IC50.

SMILES strings stand for the structures. Like-named read-outs stand apart in the source and are kept apart here.

In the case of `CC1C[C@@H]2C[C@H]1[C@@H](C(=O)N[C@H](C#N)C[C@@H]1CCNC1=O)N2C(=O)[C@@H](NC(=O)C(F)(F)F)C12CC3CC(CC(C3)C1)C2` (stereo partly shown) [Compound 12], on SARS-CoV-2 Mpro (setting [6]), the half-inhibitory concentration (IC50) (in general, the concentration at which inhibition is half-maximal) was 0.017 µM.

Take `CC(C)(C)[C@H](NC(=O)C(F)(F)F)C(=O)N1[C@H]2C[C@@H]([C@H]1C(=O)N[C@H](C#N)C[C@@H]1CCNC1=O)C(F)(F)C2` [Compound 10]: the concentration for half-maximal inhibition (IC50) at SARS-CoV-2 Mpro (setting [6]) came to 0.017 µM.

Consider `Cc1ccc(CC(=O)N[C@H](C(=O)N2[C@@H]3CC[C@@H](C3)[C@H]2C(=O)N[C@H](C#N)C[C@@H]2CCNC2=O)C23CC4CC(CC(C4)C2)C3)cc1` [Compound 13], for which the IC50 at SARS-CoV-2 Mpro (setting [6]) was found to be 0.075 µM.

In the case of `CC(C)(C)[C@H](NC(=O)C(F)(F)F)C(=O)N1[C@H]2C[C@@H]([C@H]1C(=O)N[C@H](C#N)C[C@@H]1CCNC1=O)C1(CC1)C2` [Compound 11], the IC50 on SARS-CoV-2 Mpro (setting [6]) was found to be 0.0054 µM. The CC50 was more than 5 µM in the series on Vero cells and more than 10 µM with MRC5 cells. In addition, the EC50 – broadly, the midpoint of the concentration-response curve – in the series with coronavirus HCoV OC43 was found to be 0.0035 µM. Moreover, the AUC0-last in series [1] turned out to be 28.683 µM·h; in series [2] (iv, 3 mg/kg), 1.447 µM·h; in [2] (po, 10 mg/kg), 1.519 µM·h. The Cmax (usually the peak of the concentration-time curve) came out at 10.1 µM in series [1] and 1.85 µM in series [2] (po, 10 mg/kg). In addition, the Tmax (in general, the time from dosing to the highest level) in series [1] stood at 30 min; in [2] (po, 10 mg/kg), 15 min. Further, in [2] (iv, 3 mg/kg), the CL was found to be 68.5 mL/min/kg. The T½ in series [2] (iv, 3 mg/kg) was found to be 12 min. The Vdss – broadly, a proportionality between amount in the body and measured concentration, not a real space – in series [2] (iv, 3 mg/kg) was found to be 0.9 L/kg. Also, in [3], the “Ratio lung/plasma of AUC(0-6 h)” value was 2.6/1. Further, the values for the Ratio lung/plasma in series [3] (0.25 h), in series [3] (1 h) and in [3] (6 h) were 5.5/1, 3.2/1 and 1.6/1, respectively.

On to `CC1C[C@H]2C[C@@H]1N(C(=O)[C@@H](NC(=O)C(F)(F)F)C(C)(C)C)[C@@H]2C(=O)N[C@H](C#N)C[C@@H]1CCNC1=O` (stereo partly shown) [Compound 5], for which the EC50 in series [4] is 0.02 µM; with coronavirus HCoV OC43 (Betacoronavirus 1, 120 h), 0.205 µM. Also, in “in vitro”, the CC50 is more than 5 µM. In [5], this molecule showed a CC50 at 5 days of more than 10 µM.

The molecule `CC(C)(C)[C@H](NC(=O)C(F)(F)F)C(=O)N1[C@H]2C[C@@H]([C@H]1C(=O)N[C@H](C#N)C[C@@H]1CCNC1=O)C(F)(F)C2` [Compound 6] gave an IC50 at SARS-CoV-2 Mpro of 0.135 µM.

With `CC1([C@H](NC(=O)C(F)(F)F)C(=O)N2[C@@H]3CC[C@@H](C3)[C@H]2C(=O)N[C@H](C#N)C[C@@H]2CCNC2=O)CCCCC1` [Compound 7], half-maximal inhibition against SARS-CoV-2 Mpro (IC50) was put at 0.062 µM.

In the case of `N#C[C@H](C[C@@H]1CCNC1=O)NC(=O)[C@@H]1[C@H]2CC[C@H](C2)N1C(=O)[C@@H](NC(=O)C(F)(F)F)C12CC3CC(CC(C3)C1)C2` [Compound 3], the concentration giving a half-maximal response (EC50) in [4] amounted to 0.035 µM; in the series on coronavirus HCoV OC43 (Betacoronavirus 1, 120 h), 0.062 µM. Moreover, at SARS-CoV-2 Mpro, half-maximal inhibition (IC50) was put at 0.021 µM. The same molecule showed a CC50 in “in vitro” of more than 5 µM. This molecule also showed a CC50 at 5 days in series [5] of more than 10 µM.

`N#C[C@H](C[C@@H]1CCNC1=O)NC(=O)[C@@H]1[C@H]2CC[C@H](C2)N1C(=O)[C@@H](NC(=O)C(F)(F)F)C12CCC(CC1)CC2` [Compound 4]: the EC50 in series [4] was found to be 0.03 µM; with coronavirus HCoV OC43 (Betacoronavirus 1, 120 h) it was 0.141 µM. 0.053 µM corresponded to half-maximal inhibition against SARS-CoV-2 Mpro (IC50). The same molecule returned a CC50 in the series “in vitro” of more than 5 µM. Also, the CC50 at 5 days in series [5] is more than 10 µM.
